Experimental findings from patent EP0097546A1, “Benzhydrylsulfinyl ethyl amines, process for their preparation and their use in therapy” (LABORATOIRE L. LAFON Société anonyme dite:, priority 1982, dated 1984) are described below.

What all share (type): in vivo
The subject of one series is souris mâle. Briefly: Toxicity, intraperitoneal route. Conditions: male mouse, I.P. route. The method, then: (§1) On a résumé ci-après les résultats des essais neuro- pshychopharmacologiques qui ont été ertrepris avec le CRL 40883 (produit de l'exemple 1). Dans ces essais le CRL 40883 en solution dans de l'eau distillée à pH 5 a été administré par voie intra- péritonéale sous un volume de 20 ml/kg chez la souris mâle et sous un volume de 5 ml/kg chez le rat mâle.
• Chez la souris mâle la DL-30 par voie I.P. du CRL 40883 est de l'ordre de 250 mg/kg.

The next series has as its system souris. Nature of the series: Global behaviour and reactivities in the mouse. The settings on record: i.p. The protocol: as §1
(§2) • Des lots de 6 animaux sont observés avant, puis 15 minutes, 30 minutes, 1 h , 2 h , 3 h et 24 h après l'administration de CRL 40 883.

In a further series the test system is rat. Briefly: Global behaviour and reactivities in the rat. The settings on record: i.p. The method, then: as §1, §2
The test system of series [1] is hypothermies induites par l'apomorphine. Nature of the series: Antagonism of apomorphine-induced hypothermia. The settings on record: i.p. The protocol: as §1
Series [2] has as its system hypothermies induites par la réserpine. Nature of the series: Antagonism of reserpine-induced hypothermia. The settings on record: i.p. The method, then:
as §1

Series [3] deals with hypothermies induites par l'oxotrémorine. Nature of the series: Antagonism of oxotremorine-induced hypothermia. Conditions: i.p. The method, then: as §1
Series [4] deals with stéréotypies amphétaminiques. Nature of the series: Amphetamine stereotypies. The settings on record: i.p. The method, then: as §1
The next series deals with groupes de souris. Nature of the series: Intergroup aggressiveness test. Conditions: groups of mice, i.p., doses 16 mg/kg and 64 mg/kg. The protocol:
as §1

In turn, `CNCC[S+]([O-])C(c1ccccc1)c1ccccc1` (centres unmarked) [CRL 40883, chlorhydratede N-[2-(benzhydrylsulfinyl)-éthyl]-méthylamine] gave a DL-30 with souris mâle of approximately 250 mg/kg. In addition, the “comportement et réactivités” value in the series with souris (doses 64 mg/kg, 16 mg/kg, 4 mg/kg and 1 mg/kg, observed 15 min to 24 h) was “n'entraîne pas de modifications sensibles du comportement et des réactivités”. The sédation result in the series on souris (mainly at 128 mg/kg) was “sédation modérée”. Also, in the series on rat (32 mg/kg, lasting 30 minutes), the réactivité au toucher result is listed as “hyporéactivité au toucher” and the tonus musculaire entry was “hypotonie musculaire”. In the series on rat (doses 8 mg/kg, 2 mg/kg and 0,5 mg/kg), the symptômes entry is given as “pas de symptômes particuliers”. Moreover, in series [1], the “antagonisme des hypothermies induites par l'apomorphine” value is reported as “antagonisme”. For the same molecule, in series [2], the “antagonisme des hypothermies induites par la réserpine” value is “antagonisme”. The “antagonisme des hypothermies induites par l'oxotrémorine” value in series [3] is reported as “antagonisme”. Also, the “stéréotypies amphétaminiques” value in series [4] was “potentialisation des stéréotypies amphétaminiques”. In addition, the nombre de combats result in the series on groupes de souris is given as “forte diminution du nombre de combats”.
